The first assay concerns NL-RLuc virus (recombinant HIV NL4-3 with Renilla Luciferase) in MT-2 cells. In words: Inhibition of HIV replication (NL-RLuc virus in MT-2 cells, luciferase readout). The format is cell-based, human immunodeficiency virus (HIV). Particulars: MT2, 120 h, NL-RLuc virus infecting MT-2 cells, 5 days of incubation, 10% FBS, luciferase quantitation; at least 2 experiments. An excerpt: Inhibition of HIV Replication:
A recombinant NL-RLuc proviral clone was constructed in which a section of the nef gene from NL4-3 was replaced with the Renilla Luciferase gene. This virus is fully infectious and can undergo multiple cycles of replication in cell culture. In addition, the luciferous reporter provides a simple and easy method for quantitating the extent of virus growth and consequently, the antiviral activity of test compounds. The plasmid pNLRLuc contains the proviral NL-Rluc DNA cloned into pUC 18 at the PvuII site. The NL-RLuc virus was prepared by transfection of 293T cells with the plasmid pNLRLuc. Transfections were performed using the LipofectAMINE PLUS kit from Invitrogen (Carlsbad, Calif.) according to the manufacturer and the virus generated was titered in MT-2 cells. For susceptibility analyses, the titrated virus was used to infect MT-2 cells in the presence of compound, and after 5 days of incubation, cells were processed and quantitated for virus growth by the amount of expressed luciferase. Assay media was RPMI 1640 supplemented with 10% heat inactivated fetal bovine serum (FBS), 100 units/ml penicillin G/100 units/ml streptomycin, 10 mM HEPES buffer pH 7.55 and 2 mM L-glutamine. The results from at least 2 experiments were used to calculate the EC50 values. Luciferase was quantitated using the Dual Luciferase kit from Promega (Madison, Wis.). Susceptibility of viruses to compounds was determined by incubation in the presence of serial dilutions of the compound. The 50% effective concentration (EC50) was calculated by using the exponential form of the median effect equation where (Fa)=1/[1+(ED50/drug conc.)^m] (Johnson V A, Byington R T. Infectivity Assay. In Techniques in HIV Research. ed. Aldovini A, Walker B D. 71-76. New York: Stockton Press. 1990).
By EC50 is commonly meant the concentration at which the effect is half-maximal. As to `Cc1nc2cc3nn2c(c1[C@H](OC(C)(C)C)C(=O)O)N1CCC(C)(CC1)OCCCc1ccccc1COC3` [Example 23, (2S)-2-(tert-Butoxy)-2-{4,23-dimethyl-11,22-dioxa-1,5,7,8-tetraazapentacyclo[21.2.2.1^6,^9.0^2,^7.0^13,^18]octacosa-2,4,6(28),8,13(18),14,16-heptaen-3-yl}acetic acid], the EC50 came out at 11 nM.
The same measure, in the same setting: then `Cc1nc2cc3nn2c(c1[C@H](OC(C)(C)C)C(=O)O)N1CCC(C)(CC1)OCCCc1cc(F)ccc1COC3` [Example 67, (2S)-2-(tert-Butoxy)-2-{16-fluoro-4,23-dimethyl-11,22-dioxa-1,5,7,8tetraazapentacyclo[21.2.2.1^6,^9.0^2,^7.0^13,^18]octacosa-2,4,6(28),8,13(18),14,16-heptaen-3-yl}acetic acid], with 5 nM.
As for `Cc1nc2cc3nn2c(c1[C@H](OC(C)(C)C)C(=O)O)N1CCC(C)(CC1)OCCCCOC(CC(C)C)c1cn(nn1)C3` (stereo partly drawn) [Example 12, (2S)-2-(tert-Butoxy)-2-[4,22-dimethyl-15-(2-methylpropyl)-16,21-dioxa-1,5,7,8,11,12,13-heptaazapentacyclo[20.2.2.1^6,^9.1^11,^14.0^2,^7]octacosa-2,4,6(28),8,12,14(27)-hexaen-3-yl]acetic acid], the EC50 is 136 nM.
Turning to `Cc1nc2cc3nn2c(c1[C@H](OC(C)(C)C)C(=O)O)N1CCC(C)(CC1)OCCCCCc1cc(F)ccc1COC3` [Example 60, (2S)-2-(tert-Butoxy)-2-{16-fluoro-4,25-dimethyl-1,24-dioxa-1,5,7,8-tetraazapentacyclo[23.2.2.1^6,^9.0^2,^7.0^13,^18]triaconta-2,4,6(30),8,13(18),14,16-heptaen-3-yl}acetic acid], the EC50 was 13 nM.
On to `Cc1nc2cc3nn2c(c1[C@H](OC(C)(C)C)C(=O)O)N1CCC(C)(CC1)OCCCCc1cc(F)ccc1COC3` [Example 66, (2S)-2-(tert-Butoxy)-2-{16-fluoro-4,24-dimethyl-11,23-dioxa-1,5,7,8-tetraazapentacyclo[22.2.2.1^6,^9.0^2,^7.0^13,^18]nonacosa-2,4,6(29),8,13(18),14,16-heptaen-3-yl}acetic acid], for which the 50% effective concentration (EC50) came to 4 nM.
For the compound `Cc1ccc2c(c1)CCCCOC1(C)CCN(CC1)c1c([C@H](OC(C)(C)C)C(=O)O)c(C)nc3cc(nn13)COC2` [Example 65, (2S)-2-(tert-Butoxy)-2-{4,16,24-trimethyl-11,23-dioxa-1,5,7,8-tetraazapentacyclo[22.2.2.1^6,^9.0^2,^7.0^13,^18]nonacosa-2,4,6(29),8,13(18),14,16-heptaen-3-yl}acetic acid], the 50% effective concentration (EC50) was determined as 2 nM.
On the same count and under the same terms, for `Cc1nc2cc3nn2c(c1[C@H](OC(C)(C)C)C(=O)O)N1CCC(C)(CC1)OCCCCc1ccccc1COC3` [Example 24, (2S)-2-(tert-Butoxy)-2-{4,24-dimethyl-11,23-dioxa-1,5,7,8-tetraazapentacyclo[22.2.2.1^6,^9.0^2,^7.0^13,^18]nonacosa-2,4,6(29),8,13(18),14,16-heptaen-3-yl}acetic acid] the value was 3 nM; for `Cc1nc2cc3nn2c(c1[C@H](OC(C)(C)C)C(=O)O)N1CCC(C)(CC1)OCCCC[C@H](C)Oc1cc2ccccc2cc1COC3` [Example 53, (2S)-2-(tert-butoxy)-2-[(24S)-4,24,30-trimethyl-11,23,29-trioxa-1,5,7,8-tetraazahexacyclo[28.2.2.1^6,^9.0^2,^7.0^13,^22.0^15,^20]pentatriaconta-2,4,6(35),8,13,15,17,19,21-nonaen-3-yl]acetic acid], 2 nM; for `Cc1nc2cc3nn2c(c1[C@H](OC(C)(C)C)C(=O)O)N1CCC(C)(CC1)OCCCCc1cccc(c1)COC3` [Example 63, (2S)-2-(tert-Butoxy)-2-{4,23-dimethyl-11,22-dioxa-1,5,7,8-tetraazapentacyclo[21.2.2.1^6,^9.1^13,^17.0^2,^7]nonacosa-2,4,6(29),8,13(28),14,16-heptaen-3-yl}acetic acid], 16 nM.
Take `Cc1nc2cc3nn2c(c1[C@H](OC(C)(C)C)C(=O)O)N1CCC(C)(CC1)OCCCCOCc1ccccc1-c1cn(nn1)C3` [Example 5, (2S)-2-(tert-Butoxy)-2-{4,28-dimethyl-22,27-dioxa-1,5,7,8,11,12,13-heptaazahexacyclo[26.2.2.1^6,^9.1^11,^14.0^2,^7.0^15,^20]tetratriaconta-2,4,6(34),8,12,14(33),15(20),16,18-nonaen-3-yl}acetic acid]: the concentration giving a half-maximal response (EC50) was 45 nM.
Turning to `Cc1nc2cc3nn2c(c1[C@H](OC(C)(C)C)C(=O)O)N1CCC(C)(CC1)OCC=CC[C@H](C)Oc1cc(F)c(F)cc1COC3` [Example 33, (2S)-2-(tert-Butoxy)-2-[(20S)-15,16-difluoro-4,20,26-trimethyl-11,19,25-trioxa-1,5,7,8-tetraazapentacyclo[24.2.2.1^6,^9.0^2,^7.0^13,^18]hentriaconta-2,4,6(31),8,13,15,17,22-octaen-3-yl]acetic acid], the EC50 was 6 nM.
`Cc1nc2cc3nn2c(c1[C@H](OC(C)(C)C)C(=O)O)N1CCC(C)(CC1)OCCCC[C@H](C)Oc1cc(Cl)ccc1COC3` [Example 35, (2S)-2-(tert-Butoxy)-2-[(20S)-16-chloro-4,20,26-trimethyl-11,19,25-trioxa-1,5,7,8-tetraazapentacyclo[24.2.2.1^6,^9.0^2,^7.0^13,^18]hentriaconta-2,4,6(31),8,13,15,17-heptaen-3-yl]acetic acid]: the half-maximal effective concentration (EC50) was 2 nM.
`Cc1nc2cc3nn2c(c1[C@H](OC(C)(C)C)C(=O)O)N1CCC(C)(CC1)OCCCCOc1ccccc1CC(=O)NC3` [Example 17, (2S)-2-(tert-Butoxy)-2-{4,26-dimethyl-12-oxo-20,25-dioxa-1,5,7,8,11-pentaazapentacyclo[24.2.2.1^6,^9.1^2,^7.0^14,^19]hentriaconta-2,4,6(31),8,14(19),15,17-heptaen-3-yl}acetic acid]: the EC50 was determined as 24 nM.

The assay is the same for the next values; noted with them: NL-RLuc virus infecting MT-2 cells, 5 days of incubation, 10% FBS, luciferase quantitation; at least 2 experiments; read-out: EC50.
Consider “(2S)-2-(tert-Butoxy)-2-[4,22-dimethyl-15-(propan-2-yl)-16,21-dioxa-1,5,7,8,11,12,13-heptaazapentacyclo[20.2.2.1^6,^9.1^11,^14.0^2,^7]octacosa-2,4,6(28),8,12,14(27),19-heptaen-3-yl]acetic acid [Example 9]”, for which the half-maximal effective concentration (EC50) turned out to be 93 nM.
Turning to `Cc1nc2cc3nn2c(c1[C@H](OC(C)(C)C)C(=O)O)N1CCC(C)(CC1)OCC=CCOc1ccccc1CC(=O)NC3` [Example 16, (2S)-2-(tert-Butoxy)-2-[4,26-dimethyl-12-oxo-20,25-dioxa-1,5,7,8,11-pentaazapentacyclo[24.2.2.1^6,^9.1^2,^7.0^14,^19]hentriaconta-2,4,6(31),8,14(19),15,17,22-octaen-3-yl]acetic acid], the EC50 was 21 nM.
For the compound `Cc1ccc2c(c1)O[C@@H](C)C/C=C/COC1(C)CCN(CC1)c1c([C@H](OC(C)(C)C)C(=O)O)c(C)nc3cc(nn13)COC2` [Example 37, (2S)-2-(tert-Butoxy)-2-[(20S,22E)-4,16,20,26-tetramethyl-11,19,25-trioxa-1,5,7,8-tetraazapentacyclo[24.2.2.1^6,^9.0^2,^7.0^13,^18]hentriaconta-2,4,6(31),8,13(18),14,16,22-octaen-3-yl]acetic acid], the half-maximal effective concentration (EC50) came to 4 nM.
Still for that read-out and setting: then `Cc1nc2cc3nn2c(c1[C@H](OC(C)(C)C)C(=O)O)N1CCC(C)(CC1)OC=CCCOC1(CCCCC1)c1cn(nn1)C3` [Example 7, (2S)-2-(tert-Butoxy)-2-[4′,22′-dimethyl-16′,21′-dioxa-1′,5′,7′,8′ 11′,12′,13′-heptaazaspiro[cyclohexane-1,15′-pentacyclo[20.2.2.1^6,^9.1^11,^14.0^2,^7]octacosane]-2′,4′,6′(28′),8′,12′,14′(27′),19′-heptaen-3′-yl]acetic acid], with 134 nM.

The assay is the same for the next values; noted with them: {}.
Regarding `Cc1ccc(C2CCCCOC3(C)CCN(CC3)c3c([C@H](OC(C)(C)C)C(=O)O)c(C)nc4cc(nn34)CO2)cc1` (stereo partly drawn) [Example 47, (2S)-2-(tert-butoxy)-2-[4,18-dimethyl-12-(4-methylphenyl)-11,17-dioxa-1,5,7,8-tetraazatetracyclo[16.2.2.1^6,^9.0^2,^7]tricosa-2,4,6(23),8-tetraen-3-yl]acetic acid], the concentration for a half-maximal effect (EC50) was determined as 1590 nM.
Still for that read-out and setting: then `Cc1nc2cc3nn2c(c1[C@H](OC(C)(C)C)C(=O)O)N1CCC(C)(CC1)OCCCCC(c1ccccc1)Oc1ccc(F)cc1COC3` (stereo partly drawn) [Example 51, (2S)-2-(tert-butoxy)-2-{15-fluoro-4,26-dimethyl-20-phenyl-11,19,25-trioxa-1,5,7,8-tetraazapentacyclo[24.2.2.1^6,^9.0^2,^7.0^13,^18]hentriaconta-2,4,6(31),8,13(18),14,16-heptaen-3-yl}acetic acid], with 18 nM.

The record behind these values is patent publication US9273067B2, “Pyrazolopyrimidine macrocycles as inhibitors of human immunodeficiency virus replication” (BRISTOL-MYERS SQUIBB COMPANY, priority 2014, dated 2016).
